Activity calls are given as the source filed them. No rule for the calls is given here.
What follows are molecules tested against Ubiquitin-conjugating enzyme E2 N (Homo sapiens) (UniProt P61088) (assay: UBE2N binders by NMR, biophysical, purified protein (AID 1552)). Settings: NMR binding to purified UBE2N.
Ubiquitin-conjugating enzyme E2 N (Homo sapiens), sequence (P61088 whole entry, looked up): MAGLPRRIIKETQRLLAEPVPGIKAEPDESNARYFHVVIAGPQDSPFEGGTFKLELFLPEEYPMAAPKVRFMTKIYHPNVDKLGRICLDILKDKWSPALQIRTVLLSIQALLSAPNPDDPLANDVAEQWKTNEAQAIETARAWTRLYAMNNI

Row | Structure (SMILES) | Kd
1 | Nc1nc(SCc2ccccc2)ns1 | > 4 mM (inactive)
2 | O=C(O)c1ccc2c(c1)OCO2 | > 4 mM (inactive)
3 | O=C(Nc1ccccc1F)c1ccncc1 | > 4 mM (inactive)
4 | O=C(O)CCn1cncn1 | > 4 mM (inactive)
5 | Cc1c(C(=O)O)cnn1-c1ccccc1 | > 4 mM (inactive)
6 | CCc1c(C)n([O-])c2c([n+]1=O)CCC2 | > 4 mM (inactive)
7 | Cc1cc(=O)cc(C)n1-c1ccccc1N1CCOCC1 | > 4 mM (inactive)
8 | O=C(O)C1CC(=O)N(CCc2ccc(Cl)cc2)C1 (stereo unspecified) | > 4 mM (inactive)
9 | NC(=O)c1cccc(N2C(=O)C=CC2=O)c1 | > 4 mM (inactive)
10 | C/C=C(/C)C(=O)O[C@H]1CC[C@@]2(C)[C@@H]3CC[C@H]4[C@]5(O)C[C@H](O)[C@@]6(O)[C@@H](CN7C[C@@H](C)CC[C@H]7[C@@]6(C)O)[C@]5(O)C[C@@]42OC13O | > 4 mM (inactive)
11 | COC(=O)N1CCN(c2ccc(C(C)=O)cc2)CC1 | > 4 mM (inactive)
12 | Cc1cc(C)n(S(=O)(=O)c2cc(C)c(C)cc2C)n1 | > 4 mM (inactive)
13 | Nc1ccc2[nH]ccc2c1 | > 4 mM (inactive)
14 | CC(C)c1ccccc1NC(=O)c1cnccn1 | > 4 mM (inactive)
15 | OC1COCc2nc3ccccc3n2C1 (stereo unspecified) | > 4 mM (inactive)
16 | O=C(Nc1ccc(F)cc1F)c1ccco1 | > 4 mM (inactive)
17 | CCOC(=O)CSc1nnc(C)c(=O)[nH]1 | > 4 mM (inactive)
18 | C[C@]12CCC(=O)C=C1CCC1C2C(=O)C[C@@]2(C)C1CC[C@]2(O)C(=O)CO (stereo partly specified) | > 4 mM (inactive)
19 | NC(=O)C1CCN(C(=O)c2ccco2)CC1 | > 4 mM (inactive)
20 | CC(=O)CC1(O)C(=O)Nc2ccc(Br)cc21 (stereo unspecified) | > 4 mM (inactive)
21 | COc1cc(/C=C2\SC(=S)NC2=O)ccc1O | > 4 mM (inactive)
22 | CC(=O)c1ccc2c(c1)OCCO2 | > 4 mM (inactive)
23 | CC(=O)Nc1ccc2c(C)cc(=O)[nH]c2c1 | > 4 mM (inactive)
24 | COC(=O)c1ccc(N2CCOCC2)nc1 | > 4 mM (inactive)

Row | Structure (SMILES) | Kd
25 | COc1ccccc1CNc1nc2nc(C)cc(=O)n2[nH]1 | > 4 mM (inactive)
26 | COC(=O)C1=CCCN(C)C1 | > 4 mM (inactive)
27 | C(=N\c1ncn[nH]1)/c1cccs1 | > 4 mM (inactive)
28 | Oc1cc(O)c2c(c1)O[C@H](c1ccc(O)c(O)c1)[C@H](O)C2 | > 4 mM (inactive)
29 | O=C(O)CCS(=O)(=O)c1ccccc1 | > 4 mM (inactive)
30 | NC(=O)c1ccc(-c2csnn2)cc1 | > 4 mM (inactive)
31 | Cc1noc(C)c1C(=O)Nc1cccnc1 | > 4 mM (inactive)
32 | CC(=O)O[C@H]1C[C@@H](OC(C)=O)C(C)(C)C2CC(=O)[C@]3(C)C(CC[C@@]4(C)[C@H](c5ccoc5)OC(=O)[C@H]5O[C@]543)[C@]21C (stereo partly specified) | > 4 mM (inactive)
33 | OC1CNCc2cc3c(cc21)OCCO3 (stereo unspecified) | > 4 mM (inactive)
34 | COC(=O)c1ccc(/C=C2/NC(=S)NC2=O)cc1 | > 4 mM (inactive)
35 | CC(C)(O)[C@@H]1[C@H]2OC(=O)[C@@H]1[C@]1(O)C[C@H]3O[C@]34C(=O)O[C@H]2[C@]14C | > 4 mM (inactive)
36 | OC1CCCN(Cc2ccccc2)C1 (stereo unspecified) | > 4 mM (inactive)
37 | OCc1ccc(OC(F)(F)F)cc1 | > 4 mM (inactive)
38 | COc1ccc(O)c(-c2cn[nH]c2-c2cccs2)c1 | > 4 mM (inactive)
39 | NC(=O)CSc1nnc(-c2ccncc2)o1 | > 4 mM (inactive)
40 | COc1ccc(C(O)c2nccn2C)cc1 (stereo unspecified) | > 4 mM (inactive)
41 | O=C1CSC2=NCCCN12 | > 4 mM (inactive)
42 | COC(=O)Cn1c2ccccc2c2nc(C)sc21 | > 4 mM (inactive)
43 | Cc1nn2c(=O)nc3sc4c(c3c2[nH]c1=O)CCCC4 | > 4 mM (inactive)
44 | Cc1cc(N2CCCC2=O)c(N)cc1N | > 4 mM (inactive)
45 | O=C1CCCC(=O)N1c1ccc(O)cc1 | > 4 mM (inactive)
46 | CC(=O)Nc1cc(N2C(=O)C=CC2=O)ccc1Cl | > 4 mM (inactive)
47 | COc1c2c(cc3occ(-c4ccc5c(c4)OCO5)c(=O)c13)OC(C)(C)C=C2 | > 4 mM (inactive)
48 | O=C(O)c1ccc(NC(=O)c2cccs2)cc1 | > 4 mM (inactive)

Row | Structure (SMILES) | Kd
49 | O=C(O)Cn1nnnc1-c1ccc(F)cc1 | > 4 mM (inactive)
50 | O=C(NCc1ccco1)c1cccc(F)c1 | > 4 mM (inactive)
51 | c1ccc(-n2ncc3c(NCc4ccco4)ncnc32)cc1 | > 4 mM (inactive)
52 | CC(NC(=O)c1cccnc1)c1ccc2c(c1)OCO2 (stereo unspecified) | > 4 mM (inactive)
53 | Cc1cc2ncc(C(=O)O)c(C)n2n1 | > 4 mM (inactive)
54 | O=c1/c(=C/c2cccs2)sc2ncnn12 | > 4 mM (inactive)
55 | O=C(NCc1ccccn1)c1ccc(Cl)cc1Cl | > 4 mM (inactive)
56 | Nc1cccc(CC(=S)N2CCOCC2)c1 | > 4 mM (inactive)
57 | O=S1(=O)CCC(NCCO)C1 (stereo unspecified) | > 4 mM (inactive)
58 | Cc1cc(C)nc(/N=C(/N)Nc2cccc(F)c2)n1 | > 4 mM (inactive)
59 | O=C(Nc1ccc(N2CCOCC2)cc1)C1CC1 | > 4 mM (inactive)
60 | O=c1c2c(nc3nc(Cc4ccccc4)[nH]n13)CCC2 | > 4 mM (inactive)
61 | CCN(CC)S(=O)(=O)c1cccc2nsnc12 | > 4 mM (inactive)
62 | C[C@H]1C(=O)CCC2[C@]3(C)CC[C@@]4(C)C5CC(C)(C)CC[C@]5(C)CC[C@]4(C)C3CC[C@@]21C (stereo partly specified) | > 4 mM (inactive)
63 | N=Cc1c(O)n(-c2cccc(Cl)c2)c(=O)[nH]c1=O | > 4 mM (inactive)
64 | O=C1CSC(=NC(=O)c2ccccc2)N1 | > 4 mM (inactive)
65 | Nc1nnc(SCc2ccc3c(c2)OCO3)s1 | > 4 mM (inactive)
66 | Cc1ccc2cccc(OC(=O)N3CCCC3)c2n1 | > 4 mM (inactive)
67 | c1ccc(Cc2nnc(-c3ccccc3)o2)cc1 | > 4 mM (inactive)
68 | CC1(C)Cc2c(C#N)c(N)n(-c3ccccc3)c(=O)c2CO1 | > 4 mM (inactive)
69 | Cn1cnc2c(Cl)ncnc21 | > 4 mM (inactive)
70 | Cc1nn(C)c(C)c1NC(=S)NC1CCCC1 | > 4 mM (inactive)
71 | OCCNC(=S)Nc1ccccc1 | > 4 mM (inactive)
72 | NC(CC(=O)O)c1ccccc1 (stereo unspecified) | > 4 mM (inactive)

Row | Structure (SMILES) | Kd
73 | O=c1[nH]c(O)c(C=NCc2cccs2)c(=O)[nH]1 | > 4 mM (inactive)
74 | OC[C@H]1O[C@@H](Oc2ccc(O)cc2)[C@H](O)[C@@H](O)[C@@H]1O | > 4 mM (inactive)
75 | Nc1ncnc(NC2CCS(=O)(=O)C2)c1[N+](=O)[O-] (stereo unspecified) | > 4 mM (inactive)
76 | CC(C)=CCC1=C(O)c2ccccc2C(=O)C1=O | > 4 mM (inactive)
77 | O=C1C=C(O)c2ccccc2C1=O | > 4 mM (inactive)
78 | CC(=O)c1c(C)nc(-c2ccc(F)cc2)n1O | > 4 mM (inactive)
79 | CC(=O)O[C@@H]1CC2C(C)(C)[C@H](O)C[C@H](O)[C@]2(C)C2CC[C@@]3(C)C(=CC(=O)O[C@H]3c3ccoc3)[C@@]21C (stereo partly specified) | > 4 mM (inactive)
80 | CCOc1ccc(N2C(=O)CCC2=O)cc1 | > 4 mM (inactive)
81 | O=C(c1cc(Cl)cc(Cl)c1)N1CCOCC1 | > 4 mM (inactive)
82 | COc1cc(OC)c(-c2nc3cnccc3n2C)cc1OC | > 4 mM (inactive)
83 | CS(=O)(=O)N1CCN(C(=O)c2ccccc2)C1 | > 4 mM (inactive)
84 | CC(C)CCCC(C)[C@H]1CCC2C3CC[C@@H]4C[C@H](O)CC[C@]4(C)C3CC[C@@]21C (stereo partly specified) | > 4 mM (inactive)
85 | CCSc1nc(C)c(CC)c(C)c1C(N)=O | > 4 mM (inactive)
86 | Cc1nnc2n(c1=O)N=C(c1ccccc1)CS2 | > 4 mM (inactive)
87 | CCC(C)C(=O)O[C@@H]1C[C@@]2(C)[C@H](c3ccoc3)OC(=O)CC23OC2(C)OC34[C@H](OC(=O)C(C)C)[C@@]3(O)[C@@H](OC(=O)C5(C)OC5C)[C@@]5(C)C[C@]3(O)[C@@](C)([C@H]5CC(=O)OC)C14O2 (stereo partly specified) | > 4 mM (inactive)
88 | O=C(O)/C=C/c1ccc(O)c(O)c1 | > 4 mM (inactive)
89 | CC(C)=CCc1c(O)cc(C)oc1=O | > 4 mM (inactive)
90 | COc1ccc2c(=O)c(CC(=O)O)coc2c1 | > 4 mM (inactive)
91 | CC1CN(C2=NCCN2)CC(C)O1 (stereo unspecified) | > 4 mM (inactive)
92 | Cc1cc(C)n2nc(-c3cccnc3)nc2n1 | > 4 mM (inactive)
93 | COC1CC(O[C@H]2CC[C@]3(C=O)C4CC[C@]5(C)C(C6=CC(=O)OC6)CC[C@]5(O)C4CC[C@]3(O)C2)OC(C)C1O (stereo partly specified) | > 4 mM (inactive)
94 | COc1ccc(C(=O)/C=C2\NC(=S)NC2=O)cc1 | > 4 mM (inactive)
95 | Cc1ccn(S(=O)(=O)c2ccc(C(C)(C)C)cc2)n1 | > 4 mM (inactive)
96 | Cc1cc(C(=O)N2CCOCC2)c(C)o1 | > 4 mM (inactive)

Row | Structure (SMILES) | Kd
97 | CC(=O)c1c(C)nc(C)nc1NC(=O)C(C)C | > 4 mM (inactive)
98 | O=C(Nc1nncs1)c1c(F)c(F)c(F)c(F)c1F | > 4 mM (inactive)
99 | Cc1ccc(/C=C2/C(=O)N=C(N)N2C)s1 | > 4 mM (inactive)
100 | COc1ccc(C(=O)NC2=NCCS2)cc1OC | > 4 mM (inactive)
101 | Cc1cccc(-n2c(N)cc(=O)[nH]c2=S)c1 | > 4 mM (inactive)
102 | CC1=C(C(N)=O)C(c2cccs2)C(C(N)=O)=C(C)N1 | > 4 mM (inactive)
103 | COc1ccc(C(=O)NNC(=S)NC(C)=O)cc1 | > 4 mM (inactive)
104 | NC(Cc1c[nH]c2ccccc12)C(=O)O (stereo unspecified) | > 4 mM (inactive)
105 | Cc1onc(-c2ccc(F)cc2)c1C(=O)O | > 4 mM (inactive)
106 | O=C(O)c1cccnc1Oc1ccccc1 | > 4 mM (inactive)
107 | CC(=O)c1ccc(CC2SC(N)=NC2=O)cc1 (stereo unspecified) | > 4 mM (inactive)
108 | COc1ccc(Cc2nnc3c4cnn(C)c4ncn23)cc1 | > 4 mM (inactive)
109 | Cn1cc(C(=O)N/N=C/c2ccccc2)ccc1=O | > 4 mM (inactive)
110 | NC(=O)C12CC3CC(C1)C(=O)C(C3)C2 | > 4 mM (inactive)
111 | CC(=O)Oc1ccc2c(c1)c(C(C)=O)c(C)n2C | > 4 mM (inactive)
112 | Cc1ccc(OCC(=O)n2cnnc2N)c(C)c1 | > 4 mM (inactive)
113 | O=C(O)c1csc(-c2cccs2)n1 | > 4 mM (inactive)
114 | COc1ccc(C(C)=O)c(O)c1 | > 4 mM (inactive)
115 | Cc1ccc(-n2nnnc2SCC(N)=O)c(C)c1 | > 4 mM (inactive)
116 | Cc1cc(C(=O)Nc2ccon2)cs1 | > 4 mM (inactive)
